Test results taken from article PMC3706801 (Alzheimer's Research & Therapy, 2013).

Assays:
[1] = tested on: NT2/D1 cells; assay: Curcuminoid binding to NT2/D1 cells
Description: NT2/D1 cells were grown in 25 cm^2 flasks to a density of about 90% confluence (6 to 8 × 10^6 cells) with 6 ml of Dulbecco's Minimal Essential Medium (DMEM) containing 5% fetal calf serum (FCS). […] The remaining volume consisted of varying ratios of DMEM and mouse serum to generate dose curves with constant curcuminoid and variable serum concentrations. […] Cells were then washed three times in the flasks with 5 mL of 0.9% saline and then scraped into 1 ml of the same solution. The cell suspension was centrifuged at 3,000 × g for one minute and the supernatant removed. The cell pellet was resuspended in 1 ml of 0.6% saline and re-centrifuged. The final pellet was suspended in 0.4 ml of 0.6% saline and mixed with 0.8 ml of acetone. All samples were stored at -20°C for 2 to 16 h and processed for reversed phase chromatography as described above for tissue preparation.

[2] = cited from earlier work
[3] = parameters: method as in PMID 17340565; conditions: i.v. 10 mg/kg in DMA/PEG/dextrose, rats; read-out: initial plasma concentrations; cited from earlier work
[4] = parameters: method as in PMID 18417733; conditions: intramuscular 3 mg/kg, four hours after injection; cited from earlier work
[5] = HP-γ-CD-solubilized, dose curve ~50% BMAX, Figure 9B left
[6] = HP-γ-CD-solubilized, saturating (100% BMAX), 300 μM, no serum, Figure 9B middle
[7] = HP-γ-CD-solubilized, serum competition, 95% serum, Figure 9B right
[8] = mouse serum-solubilized, dose curve ~50% BMAX, Figure 9A left
[9] = mouse serum-solubilized, saturating (100% BMAX), 200 μM, 5% serum, Figure 9A middle
[10] = mouse serum-solubilized, serum competition, 100% serum, Figure 9A right

Molecule	relative contribution to cell-bound curcuminoids (percentage of the total) [1, 5]	relative contribution to cell-bound curcuminoids (percentage of the total) [1, 6]	relative contribution to cell-bound curcuminoids (percentage of the total) [1, 7]	relative contribution to cell-bound curcuminoids (percentage of the total) [1, 8]	relative contribution to cell-bound curcuminoids (percentage of the total) [1, 9]	relative contribution to cell-bound curcuminoids (percentage of the total) [1, 10]	plasma levels after oral administration [2]	C0 [3]	brain levels [4]
COc1cc(/C=C/C(O)=C/C(=O)/C=C/c2ccc(O)cc2)ccc1O [DMC, demethoxycurcumin]	23%	24%	19%	24%	24%	20%			
bisdemethoxycurcumin [BDMC]	35%	48%	26%	27%	15%	15%			
curcumin	42%	28%	55%	49%	61%	65%	≤ 1 µM	~27 µM	approximately 3.2 nmol/g
